Reference: patent US20170196853A1 (AB SCIENCE, priority 2014, published 2017)
pIC50: −log10 of the molar value.

Experiments:
LYN = LYN (Homo sapiens, UniProt P07948); test: In vitro enzymatic phosphorylation assay, LYN; assay type: biochemical
FYN = FYN (Homo sapiens, UniProt P06241); test: In vitro enzymatic phosphorylation assay, FYN; assay type: biochemical
FYN, sequence (P06241 whole entry, species assumed): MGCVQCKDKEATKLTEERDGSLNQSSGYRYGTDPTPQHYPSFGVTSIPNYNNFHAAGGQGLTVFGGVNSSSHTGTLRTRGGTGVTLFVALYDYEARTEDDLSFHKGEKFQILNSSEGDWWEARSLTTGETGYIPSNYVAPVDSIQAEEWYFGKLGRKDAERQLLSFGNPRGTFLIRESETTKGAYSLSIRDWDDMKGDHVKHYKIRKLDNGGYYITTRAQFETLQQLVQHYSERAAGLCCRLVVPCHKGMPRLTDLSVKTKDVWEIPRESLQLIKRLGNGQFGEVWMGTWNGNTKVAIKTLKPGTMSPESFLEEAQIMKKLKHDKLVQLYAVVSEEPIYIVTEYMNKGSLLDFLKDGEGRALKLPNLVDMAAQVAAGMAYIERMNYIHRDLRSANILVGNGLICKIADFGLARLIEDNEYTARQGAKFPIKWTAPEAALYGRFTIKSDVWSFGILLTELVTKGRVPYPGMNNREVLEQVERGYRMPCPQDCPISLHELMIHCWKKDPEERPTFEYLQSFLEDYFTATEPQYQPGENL

LYN, sequence (P07948 whole entry, species assumed): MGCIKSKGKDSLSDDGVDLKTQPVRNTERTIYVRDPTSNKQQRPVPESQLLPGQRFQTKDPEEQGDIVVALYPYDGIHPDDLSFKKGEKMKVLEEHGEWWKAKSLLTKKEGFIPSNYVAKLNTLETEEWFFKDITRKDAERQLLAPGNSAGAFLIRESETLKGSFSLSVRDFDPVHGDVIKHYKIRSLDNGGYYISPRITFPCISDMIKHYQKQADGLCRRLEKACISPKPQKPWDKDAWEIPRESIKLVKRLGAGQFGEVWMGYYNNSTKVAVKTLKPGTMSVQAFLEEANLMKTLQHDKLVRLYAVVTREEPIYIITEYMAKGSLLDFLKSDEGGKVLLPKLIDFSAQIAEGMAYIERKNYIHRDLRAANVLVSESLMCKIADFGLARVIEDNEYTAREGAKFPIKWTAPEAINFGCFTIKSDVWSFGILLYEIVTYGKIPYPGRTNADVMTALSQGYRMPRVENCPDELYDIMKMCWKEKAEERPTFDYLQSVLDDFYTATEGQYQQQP

- pIC50 (LYN): 6.66
- pIC50 (FYN): 6.62
Compound: Cc1ccc(NC(=O)c2ccc(CN3CCN(C)CC3)cc2)cc1Nc1nc(-c2cccnc2)cs1 [masitinib, 4-(4-methylpiperazin-1-ylmethyl)-N-[4-methyl-3-(4-pyridin-3y1thiazol-2-ylamino)phenyl]benzamide]
